Experiments:
[1] = test system: glutamine synthetase; experiment: In vivo expression of glutamine synthetase in spleen cells of treated mice; conditions: after 24 hours
Procedure: (§1) For the mRNA detection, the total RNA was isolated from the respective samples (human PBMC or human whole blood or spleen cells from mice), transcribed in the cDNA and amplified and detected below by means of Real-time TaqMan-PCR (Applied Biosystems). A relative quantification in comparison to the expression of the “house-keeping” gene HPRT was carried out. In each case, the ratio of the result for the GR ligands to the result of the vehicle control is plotted.
(§2) The in vivo regulation of the expression of selected genes was characterized in the spleen cells of SEGRA-treated mice after 24 hours.

[2] = test system: CD163; experiment: Time-dependent CD163 mRNA expression in human whole-blood cultures; format: cell-based
Procedure: as §1
(§3) For the parameters CD163 and FKBP51, in addition, the time-dependent influence of CR ligands on the mRNA expression in human whole-blood cultures was examined.

[3] = test system: MMTV promoter; experiment: MMTV promoter luciferase transactivation assay in HeLa cells; format: cell-based, human
Description: The promoter of the mouse mammary tumor virus (MMTV) contains specific binding sites for the activated GR (so-called GREs). This promoter was cloned before a reporter gene (luciferase), and the construct was integrated in a stable manner in the genome of the human cell line HeLa (cervix carcinoma cells). By adding test and reference substances, the MMTV promoter is activated, and the luciferase, whose activity can be detected by means of photometric measurement, is expressed.
(§4) The activities of SEGRA substances in the respective transactivation and transrepression systems are determined in comparison to the activities of the reference substance dexamethasone.

[4] = test system: GILZ; experiment: In vivo expression of GILZ in spleen cells of treated mice; conditions: after 24 hours
Procedure: as §1, §2

[5] = test system: transactivation parameters; experiment: Gene induction in human PBMC (transactivation profile); format: cell-based; conditions: mRNA
Procedure: as §1
Below, by way of example, the application of the characterization of the transactivation and transrepression activity of selective GR ligands by means of gene expression analysis in primary immune cells is shown comparatively based on two SEGRA substances, the agonist in the transactivation, compound 1, and the antagonist in the transactivation, compound 2. The molecular mechanism of these substances had been previously characterized in the usual assays (see 5.2 and 5.3). The gene expression analysis was performed by means of quantitative Real-Time-TaqMan-PCR. The ratios (mean value±standard deviation) of the results for the GR ligands to the results for the vehicle control are shown.
In contrast to this, the different transactivation profile of the SEGRA substances is reflected in differing degrees of gene induction.

[6] = test system: FKBP51; experiment: In vivo expression of FKBP51 in spleen cells of treated mice; conditions: after 24 hours
Procedure: as §1, §2

[7] = test system: CD163; experiment: In vivo expression of CD163 in spleen cells of treated mice; conditions: after 24 hours
Procedure: as §1, §2

[8] = test system: FKBP51; experiment: Time-dependent FKBP51 mRNA expression in human whole-blood cultures; format: cell-based
Procedure: as §1, §3

[9] = test system: tyrosinaminotransferase (TAT); experiment: Induction of tyrosinaminotransferase (TAT) activity in rat hepatoma cells (H4IIE3); format: cell-based; conditions: for effectiveness, induction of the TAT activity, % of the maximum dexamethasone effect / EC50: agonism, n=2; for EC50: read-out: power, induction of the TAT activity
Procedure: In a second transactivation system, the induction of the tyrosinaminotransferase (TAT) by glucocorticoids is determined. In the promoter of the gene for the TAT, GREs are also located, so that this gene is expressed in an enhanced form by binding of the ligand-activated GR. To this end, rat hepatoma cells (H4IIE3) are treated for 24 hours with test and reference substances, and then the TAT activity is determined by photometry. For the two assays, both the detection of agonistic actions of the SEGRA substances in the transactivation and the detection of antagonistic actions in the induction of the parameters by other GR ligands are possible.
as §4

[10] = test system: IL-1β; experiment: In vitro mRNA expression of IL-1β (transrepression parameter) in unstimulated human PBMC cultures; format: cell-based; conditions: for suppression of the mRNA expression of IL-1β (in words): human PBMC cultures, single substance; for Transrepression vs. Prednisolone IL-1β: mRNA, PBMC cultures, prednisolone/GR ligand quotient
Description: (§5) Regarding the definition of suitable parameters, the regulation, mediated by standard glucocorticoids and selective GR ligands, of more than 50 genes in primary human immune cells was examined in a broad screening approach. Selected genes were further characterized in vitro and in vivo in kinetic experiments. […] Decisive criteria for the parameter selection were 1) the consistent reflection of transactivation or transrepression properties of GR ligands, 2) the detection of the regulation in non-stimulated immune cells, and 3) the quick reaction of the gene expression in in vitro assays (the 4-hour time period was used for the screening), and the good and enduring detectability after in vivo application of GR ligands. These properties make it likely that a direct regulation of the gene expression by the GR ligands will take place and that the parameters will be usable in in vivo studies (e.g., as biomarkers).
(§6) To have a comparison with a standard GK, the GR-ligand-influenced gene expressions for these parameters were normalized to the gene expression after treatment with the standard GK, prednisolone. […] It is clear to one skilled in the art that the normalization could also in principle be related to any other glucocorticoid.
(§7) For gene suppression, the “prednisolone/GR ligand” quotient was derived for purposes of normalization, i.e., a lower value (<1) indicates a relatively weaker suppression by the GR ligands (higher values in the residual gene expression).
as §1

[11] = test system: transrepression (TNF-α and IL-1β) and transactivation (CD163 and FKBP51); experiment: Transrepression/transactivation ratio (dissociation factor) in human PBMC cultures; format: cell-based; conditions: PBMC cultures, 1, 2, 4, 12 and 24 hours
Description: As parameters that could [make] reference to the mechanism of the transrepression, TNF-α and IL-1β were selected. CD163 and FKBP51 are used to detect the transactivation activity.
Below, a ratio between the transrepression and transactivation parameters that are normalized to prednisolone was derived according to formula 2: [formula]
The factors for the transactivation and transrepression activity were averaged geometrically and put into a ratio with one another. […] The higher the ratio, the more dissociated the GR ligand is in comparison to prednisolone (ratio=1). [drawing]
Figure: Ratios for Visualization of the In Vitro Dissociation of the GR Ligands in Comparison to Prednisolone in PBMC Cultures (n—3) after 1, 2, 4, 12 and 24 Hours.
The ratios were calculated after the normalization of the gene expression values to prednisolone from the quotient of the geometric means of the parameters for transrepression (TNF-α and IL-1β) and for transactivation (CD163 and FKBP51). Mean values±SD.

[12] = test system: CD163; experiment: In vitro mRNA expression of CD163 (transactivation parameter) in unstimulated human PBMC cultures; format: cell-based; conditions: for induction of CD163 (in words): single substance; for Transactivation vs. Prednisolone CD163: mRNA, PBMC cultures, GR-ligand/prednisolone quotient
Description: as §5, §6, §7, §1

[13] = test system: TNF-α; experiment: In vitro mRNA expression of TNF-α (transrepression parameter) in unstimulated human PBMC cultures; format: cell-based; conditions: for suppression of the mRNA expression of TNF-α (in words): human PBMC cultures, single substance; for Transrepression vs. Prednisolone TNF-α: mRNA, PBMC cultures, prednisolone/GR ligand quotient
Description: as §5, §6, §7, §1

[14] = test system: FKBP51; experiment: In vitro mRNA expression of FKBP51 (transactivation parameter) in unstimulated human PBMC cultures; format: cell-based; conditions: for Transactivation vs. Prednisolone FKBP51: mRNA, PBMC cultures, GR-ligand/prednisolone quotient
Description: as §5, §6, §7, §1

[15] = test system: inflammatory cytokines; experiment: In vivo expression of inflammatory cytokines in spleen cells of treated mice; conditions: after 24 hours, vs vehicle control
Procedure: as §1, §2

[16] = human PBMC cultures, antagonism

Cc1noc(=O)c2ccc(NC(=O)C(O)(CC(C)(C)c3cccc4c3OCO4)C(F)(F)F)cc12 (centres unmarked) [compound 1]
expression of glutamine synthetase [1]: clear induction
time-dependent influence on CD163 mRNA expression [2]: induced the expression of these genes permanently
antagonistic effect in the MMTV promoter assay (in words) [3]: antagonistic effect neither
EC50 ([3]; Homo sapiens, agonism, n=2, read-out: power, induction of the activity of the MMTV promoter): 0.01 ± 0.0014 µM
effectiveness, induction of the MMTV promoter, % of the maximum dexamethasone effect ([3]; agonism, n=2): 73±2.8%
expression of GILZ [4]: clear induction
gene induction [5]: clearly induces
expression of FKBP51 [6]: clear induction
expression of CD163 [7]: clear induction
time-dependent influence on FKBP51 mRNA expression [8]: induced the expression of these genes permanently
effectiveness, induction of the TAT activity, % of the maximum dexamethasone effect ([9]; rat hepatoma cells): 86±12.7%
EC50 ([9]; rat hepatoma cells): 0.0057 ± 0.0006 µM

C[C@]12C=CC(=O)C=C1CC[C@@H]1[C@@H]2[C@@H](O)C[C@@]2(C)[C@H]1CC[C@]2(O)C(=O)CO [Prednisolone, prednisolone]
suppression of the mRNA expression of IL-1β (in words) [10]: suppression
Transrepression vs. Prednisolone IL-1β ([10]; 1 hour): 1.00
Transrepression vs. Prednisolone IL-1β ([10]; 2 hours): 1.00
Transrepression vs. Prednisolone IL-1β ([10]; 4 hours): 1.00
Transrepression vs. Prednisolone IL-1β ([10]; 12 hours): 1.00
Transrepression vs. Prednisolone IL-1β ([10]; 24 hours): 1.00
time-dependent influence on CD163 mRNA expression [2]: induced the expression of these genes permanently
dissociation factor (transrepression/transactivation ratio vs prednisolone) [11]: largely comparable
induction of CD163 (in words) ([12]; human PBMC cultures): induced
Transactivation vs. Prednisolone CD163 ([12]; 1 hour): 1.00
Transactivation vs. Prednisolone CD163 ([12]; 2 hours): 1.00
Transactivation vs. Prednisolone CD163 ([12]; 4 hours): 1.00
Transactivation vs. Prednisolone CD163 ([12]; 12 hours): 1.00
Transactivation vs. Prednisolone CD163 ([12]; 24 hours): 1.00
time-dependent influence on FKBP51 mRNA expression [8]: induced the expression of these genes permanently
suppression of the mRNA expression of TNF-α (in words) [13]: suppression
Transrepression vs. Prednisolone TNF-α ([13]; 1 hour): 1.00
Transrepression vs. Prednisolone TNF-α ([13]; 2 hours): 1.00
Transrepression vs. Prednisolone TNF-α ([13]; 4 hours): 1.00
Transrepression vs. Prednisolone TNF-α ([13]; 12 hours): 1.00
Transrepression vs. Prednisolone TNF-α ([13]; 24 hours): 1.00
induction of FKBP51 (in words) ([14]; human PBMC cultures, single substance): induced
Transactivation vs. Prednisolone FKBP51 ([14]; 1 hour): 1.00
Transactivation vs. Prednisolone FKBP51 ([14]; 2 hours): 1.00
Transactivation vs. Prednisolone FKBP51 ([14]; 4 hours): 1.00
Transactivation vs. Prednisolone FKBP51 ([14]; 12 hours): 1.00
Transactivation vs. Prednisolone FKBP51 ([14]; 24 hours): 1.00

C[C@@H]1C[C@H]2[C@@H]3CCC4=CC(=O)C=C[C@]4(C)[C@@]3(F)[C@@H](O)C[C@]2(C)[C@@]1(O)C(=O)CO [Dexamethasone, dexamethasone]
Transrepression vs. Prednisolone IL-1β ([10]; 1 hour): 0.61
Transrepression vs. Prednisolone IL-1β ([10]; 2 hours): 0.69
Transrepression vs. Prednisolone IL-1β ([10]; 4 hours): 1.27
Transrepression vs. Prednisolone IL-1β ([10]; 12 hours): 0.96
Transrepression vs. Prednisolone IL-1β ([10]; 24 hours): 1.16
Transactivation vs. Prednisolone CD163 ([12]; 1 hour): 1.02
Transactivation vs. Prednisolone CD163 ([12]; 2 hours): 1.89
Transactivation vs. Prednisolone CD163 ([12]; 4 hours): 1.34
Transactivation vs. Prednisolone CD163 ([12]; 12 hours): 1.13
Transactivation vs. Prednisolone CD163 ([12]; 24 hours): 1.04
Transrepression vs. Prednisolone TNF-α ([13]; 1 hour): 0.80
Transrepression vs. Prednisolone TNF-α ([13]; 2 hours): 0.85
Transrepression vs. Prednisolone TNF-α ([13]; 4 hours): 1.01
Transrepression vs. Prednisolone TNF-α ([13]; 12 hours): 1.00
Transrepression vs. Prednisolone TNF-α ([13]; 24 hours): 0.97
Transactivation vs. Prednisolone FKBP51 ([14]; 1 hour): 0.89
Transactivation vs. Prednisolone FKBP51 ([14]; 2 hours): 1.13
Transactivation vs. Prednisolone FKBP51 ([14]; 4 hours): 1.08
Transactivation vs. Prednisolone FKBP51 ([14]; 12 hours): 1.07
Transactivation vs. Prednisolone FKBP51 ([14]; 24 hours): 1.05

Cc1noc(=O)c2ccc(NC(=O)C(O)(CC(C)(C)c3cc(F)ccc3C(F)(F)F)C(F)(F)F)cc12 (centres unmarked) [compound 2]
suppression of the mRNA expression of IL-1β (in words) [10]: suppression
expression of glutamine synthetase [1]: reduces the expression
time-dependent influence on CD163 mRNA expression [2]: did not lead to the increase of the gene expression
antagonistic effect in the MMTV promoter assay (in words) [3]: clear antagonist
IC50 ([3]; Homo sapiens, antagonism, n=3, read-out: power, antagonism of the MMTV promoter activity induced by dexamethasone): 0.085 ± 0.012 µM
effectiveness, antagonism of dexamethasone-induced MMTV promoter activity, % of the maximum effect of the GR antagonist RU 486 ([3]; antagonism, n=3): 119±3.6%
expression of GILZ [4]: reduces the expression
gene induction [5]: lower gene induction or no gene induction
CD163 expression in all batches ([12]; human PBMC cultures, alone and with prednisolone): reduced
induction of CD163 on simultaneous administration with prednisolone, in comparison to prednisolone alone [12, 16]: clearly lower
induction of CD163 (in words) ([12]; human PBMC cultures): not
inhibition of the inflammatory cytokines (transrepression) [15]: less pronounced
expression of FKBP51 [6]: reduces the expression
expression of CD163 [7]: reduces the expression
time-dependent influence on FKBP51 mRNA expression [8]: did not lead to the increase of the gene expression
suppression of the mRNA expression of TNF-α (in words) [13]: suppression
Emax ([9]; Rattus norvegicus, at a concentration of 1 μmol, read-out: antagonism of the dexamethasone-induced TAT activity, % of the maximum effect of RU 486): 35%
effectiveness, induction of the TAT activity, % of the maximum dexamethasone effect ([9]; rat hepatoma cells): 43.5±10.6%
EC50 ([9]; rat hepatoma cells): 0.067 ± 0.01 µM
behaviour in the TAT promoter (in words) ([9]; rat hepatoma cells): partial agonist
induction of FKBP51 on simultaneous administration with prednisolone, in comparison to prednisolone alone [14, 16]: clearly lower

Reference: patent publication US20060275800A1, “Process for characterization of the transactivation and transrepression activity of glucocorticoid receptor ligands in primary immune cells” (priority 2005, published 2006)
